These are literature values, as cited in patent US20250099590A1, “HIGH DENSITY ULTRASOUND COUPLING GEL AND METHODS OF USE THEREOF” (ZetrOZ Systems LLC, priority 2023, published 2025).

The test system of series [1] is osteoarthritis-induced pain. Particulars: SAM treatment with 1% topical diclofenac, after 7 days.
In series [2] the test system is musculoskeletal injuries. Particulars: SAM with 2.5% diclofenac, after 4-weeks of daily home-use.

Consider `O=C(O)Cc1ccccc1Nc1c(Cl)cccc1Cl` [diclofenac], for which, in series [1], the “Western Ontario McMaster Outcome (WOMAC)” value is “improved” and the osteoarthritis-induced pain result is “significantly alleviated”. In addition, in series [2], the “global health and function” value was “global health and functional improvement”; the pain result is given as “significant pain reduction”.
